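These data come from cells grown in 96-well plates and exposed to compound for 48 hours at five concentrations. GI50 marks 50% less growth.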 The source made the active and inactive calls. No stated cut-off is given here; in the data, active = GI50 up to about 1.1 µM and inactive = higher.
What was measured:
Assay in all cases: DTP human tumour cell line panel, 48 h
BT-549 = system: BT-549
DU-145 = system: DU-145
Hs-578T = system: Hs-578T
MDA-MB-231 = system: MDA-MB-231
MDA-MB-435 = system: MDA-MB-435
MDA-N = system: MDA-N
T47D = system: T47D
LXFL 529 = system: LXFL 529
RXF 631 = system: RXF 631

Row | SMILES | GI50 (BT-549) | GI50 (DU-145) | GI50 (Hs-578T) | GI50 (MDA-MB-231) | GI50 (MDA-MB-435) | GI50 (MDA-N) | GI50 (T47D) | GI50 (LXFL 529) | GI50 (RXF 631)
1 | COc1ccc(-c2cc(C(O)C3CCCCN3)c3ccccc3n2)cc1 (stereo unspecified) | 15.9 µM (inactive) | 8.39 µM (inactive) | 14.3 µM (inactive) | 2.36 µM (inactive) | 3.73 µM (inactive) | 4.92 µM (inactive) | 4 µM (inactive) |  | 
2 | Brc1ccc(C2CC(c3cccc4ccccc34)=Nc3ccccc3S2)cc1 (stereo unspecified) |  |  |  |  |  |  |  | > 100 µM (inactive) | 
3 | CCCCCCCCC[C@@H]1C[C@H](O)[C@H](Cc2ccccc2)N1C(=O)OC(C)(C)C |  |  |  |  |  |  |  | 17.2 µM (inactive) | 
4 | CCCCCCCC/C=C\CCCCCCCCNc1ccn(C2OC(COP(=O)(O)OC3CC(n4cc(F)c(=O)[nH]c4=O)OC3CO)C(O)C2O)c(=O)n1 (stereo unspecified) | 20.9 µM (inactive) | 0.159 µM (active) | > 100 µM (inactive) | > 100 µM (inactive) | 40.8 µM (inactive) | > 55.1 µM (inactive) | 36.3 µM (inactive) |  | 
5 | CCCC(=O)OC[n+]1ccc2c(C)c3[nH]c4ccc(OC)cc4c3c(C)c2c1 |  |  |  |  |  |  |  | 0.498 µM (active) | 
6 | C/C(=C\c1ccc(Cl)cc1)C(C)(C)C(=O)O | > 100 µM (inactive) | > 100 µM (inactive) | > 100 µM (inactive) | > 100 µM (inactive) | > 100 µM (inactive) | > 100 µM (inactive) | > 100 µM (inactive) |  | 
7 | COc1cc(C(C)c2cc3c(cc2OCCO)OCO3)cc(OC)c1OC (stereo unspecified) |  |  |  |  |  |  |  | 2.77 µM (inactive) | 
8 | CC1=C2C(=C[C@H]3[C@]4(C)CCCC(C)(C)[C@H]4CC[C@]34O[C@H]24)OC1=O | > 100 µM (inactive) | > 100 µM (inactive) |  | > 100 µM (inactive) | > 100 µM (inactive) | > 100 µM (inactive) |  |  | 
9 | COc1c(Cl)cc(S(=O)O)cc1Cl |  |  |  |  |  |  |  | > 100 µM (inactive) | 
10 | COc1ccc([I+]c2ccc(OC)cc2)cc1 |  | 99.5 µM (inactive) | > 100 µM (inactive) | > 100 µM (inactive) | > 56.5 µM (inactive) |  | > 95.7 µM (inactive) |  | 
11 | COc1ccc(-c2nnc3c4ccccc4sn23)cc1 |  |  |  |  |  |  |  | 23.7 µM (inactive) | 
12 | O=C1C2C(C(=O)N1OS(=O)(=O)c1ccccc1)N(Cc1ccccc1)C(=O)N2Cc1ccccc1 (stereo unspecified) |  |  |  |  |  |  |  | > 100 µM (inactive) | > 100 µM (inactive)
13 | CC(=O)N(CCN1C(=O)c2ccccc2C1=O)CCN1C(=O)c2ccccc2C1=O |  |  |  |  |  |  |  | > 100 µM (inactive) | 
14 | CN(CCO)CCC1COc2ccccc2O1 (stereo unspecified) |  | > 10 µM (inactive) | > 10 µM (inactive) | > 10 µM (inactive) | > 10 µM (inactive) | > 10 µM (inactive) | > 10 µM (inactive) |  | 
15 | CC(NNC(=O)c1cc[n+]([BH2-]C#N)cc1)c1ccc(F)cc1 (stereo unspecified) | > 100 µM (inactive) | > 100 µM (inactive) | > 100 µM (inactive) | > 100 µM (inactive) | > 100 µM (inactive) | > 100 µM (inactive) | > 100 µM (inactive) |  | 
16 | Clc1ncc(C(Cl)(Cl)Cl)nc1-c1ccccc1 | 1.65 µM (inactive) | 1.61 µM (inactive) | 2.82 µM (inactive) | 1.97 µM (inactive) | 1.77 µM (inactive) | 1.87 µM (inactive) | 1.96 µM (inactive) |  | 
17 | N#CSCC1COc2ccccc2O1 (stereo unspecified) |  | > 10 µM (inactive) | > 10 µM (inactive) | > 10 µM (inactive) | > 10 µM (inactive) | > 10 µM (inactive) | > 10 µM (inactive) |  | 
18 | CC(C)CCC1CC2C(=O)N(c3ccccc3)C(=O)C2c2[nH]c3ccccc3c21 (stereo unspecified) |  |  |  |  |  |  |  | 6.05 µM (inactive) | 1.26 µM (inactive)
19 | N#C/C(=C\c1ccc(Br)cc1)c1nc(-c2cc3ccccc3oc2=O)cs1 | 7.29 µM (inactive) | 15.7 µM (inactive) | 11.5 µM (inactive) | 10.1 µM (inactive) | 23.5 µM (inactive) | 17.7 µM (inactive) | 22.7 µM (inactive) |  | 
20 | CN1C[C@H]2[C@@H](C1=O)[C@H](c1ccccc1)ON2C |  | > 100 µM (inactive) | > 100 µM (inactive) | > 100 µM (inactive) | > 100 µM (inactive) | > 100 µM (inactive) | > 100 µM (inactive) |  | 
